Values quoted from earlier work as cited in patent US20140080711A1, “SUSPENSION OF PARTICLES COMPRISING CYCLOPROPENE COMPLEXES DISPERSED IN A RESIN MATRIX” (AgroFresh Inc., priority 2012, published 2014).

Tested on: ethylene receptors

## CC1=CC1 [Sample 1-MCP, 1-methylcyclopropene]
  affinity for the receptor relative to that of ethylene: approximately 10 times
